In brackets after ≈: the same amount, converted by molar mass. Several values for one entry are separate records, joined by “and”; a condition that tells them apart may be missing. Equal entries are not always repeated. Structures can show the parent of a compound that is named as a salt.

This is an account of results in patent publication US4235996A, “Bis(2-imida zolin-2-ylhydrazone)-9,10-dihydro-9,10-anthracenedicarboxaldehydes” (American Cyanamid Company, priority 1978, dated 1980).

The subject of experiment [1] is Staphylococcus aureus OSU 75-2. Briefly: Antibacterial spectrum, agar-dilution streak-plate technique. It is filed as cell-based. To be noted: OSU752, 37° C., 18 hours, read-out: Minimal Inhibitory Concentration. Here is the method: (§1) The antibacterial spectrum, in terms of the concentration required to inhibit the growth of various typical bacteria, was determined in a standard manner by the agar-dilution streak-plate technique. A Steers multiple inocula replicator was used with incubation at 37° C. for 18 hours in Mueller-Ninton agar. The results for typical compounds of this invention are set forth in Table III below as the minimal inhibitory concentration in micrograms per milliliter.

The subject of experiment [2] is Staphylococcus aureus Q 74-11. Described as above. It is filed as cell-based. To be noted: 37° C.; for MIC: Staphylococcus aureus, Q7411, 18 h, read-out: Minimal Inhibitory Concentration. The protocol: as §1
For a further experiment, the system named is Enterococcus SM 77-15. Described as above. It is filed as cell-based. The following applies: SM7715, 37° C., 18 hours, read-out: Minimal Inhibitory Concentration. The protocol: as §1
In experiment [3] the test system is Staphylococcus aureus St. Paul (NYC 78-1). Described as above. The following applies: 37° C., 18 hours, read-out: Minimal Inhibitory Concentration. It is filed as cell-based. Here is the method: as §1
Experiment [4] deals with lymphocytic leukemia P388. Nature of the experiment: Lymphocytic leukemia P388 test (survival of transplanted mice). It is filed as in vivo. The protocol: Lymphocytic leukemia P388 test
The animals used are mice, all of one sex, weighing a minimum of 18 g. and all within a 3 gram weight range. There are 5 or 6 animals per test group. The tumor transplant is by intraperitoneal injection of 0.1 ml. or 0.5 ml. of dilute ascitic fluid containing 10^6 cells of lymphocytic leukemia p388. The test compounds are administered intraperitoneally on days one, 5 and 9 (relative to tumor inoculation) at various doses. The animals are weighed and survivors are recorded on a regular basis for 60 days. The median survival time and the ratio of survival time for treated (T)/control (C) animals are calculated. The positive control compound is 5-fluorouracil given as an intraperitoneal injection on days one, 5 and 9. […] The criterion for efficacy is T/C×100≥125%.

In a further experiment the test system is melanotic melanoma B16. Nature of the experiment: Melanotic Melanoma B16 test (survival of transplanted mice). It is filed as in vivo, C57BC/6 mice. The protocol: The animals used are C57BC/6 mice, all of the same sex, weighing a minimum of 17 g. and all within a 3 g. weight range. There are normally 10 animals per test group. A one-gram portion of melanotic melanoma B16 tumor is homogenized in 10 ml. of cold balanced salt solution and a 0.5 ml. aliquot of the homogenate is implanted intraperitoneally into each of the test mice. The test compounds are administered intraperitoneally on days one through 9 (relative to tumor inoculation) at various doses. The animals are weighed and survivors are recorded on a regular basis for 60 days. The median survival time and the ratio of survival time for treated (T)/control (C) animals are calculated. The positive control compound is 5-fluorouracil given as a 20 mg./kg. injection. The results of this test with representative compounds of the present invention appear in Table II below. The criterion for efficacy is T/C×100≥125%.

The mark [5] stands for this setting: 3.12 mg./kg., i.p. days 1, 5 and 9.
Setting [6] is: 3.12 mg./kg., i.p. days 1, 5 and 9, efficacy criterion ≥125%.
Where [7] appears, read: 6.25 mg./kg., i.p. days 1, 5 and 9.
[8] abbreviates: 6.25 mg./kg., i.p. days 1, 5 and 9, efficacy criterion ≥125%.
Where [9] appears, read: 12.5 mg./kg., i.p. days 1, 5 and 9.
Setting [10] is: 12.5 mg./kg., i.p. days 1, 5 and 9, efficacy criterion ≥125%.
Where [11] appears, read: 25 mg./kg., i.p. days 1, 5 and 9.
The mark [12] stands for this setting: 25 mg./kg., i.p. days 1, 5 and 9, efficacy criterion ≥125%.
The mark [13] stands for this setting: 3 mg./kg., i.p. days one through 9.
Where [14] appears, read: 3 mg./kg., i.p. days one through 9, efficacy criterion ≥125%.
[15] abbreviates: 6 mg./kg., i.p. days one through 9.
Setting [16] is: 6 mg./kg., i.p. days one through 9, efficacy criterion ≥125%.
The mark [17] stands for this setting: 12 mg./kg., i.p. days one through 9.
Where [18] appears, read: 12 mg./kg., i.p. days one through 9, efficacy criterion ≥125%.
Where [19] appears, read: 50 mg./kg., i.p. days 1, 5 and 9.
The mark [20] stands for this setting: 50 mg./kg., i.p. days 1, 5 and 9, efficacy criterion ≥125%.
Setting [21] is: 1.5 mg./kg., i.p. days one through 9.
Setting [22] is: 1.5 mg./kg., i.p. days one through 9, efficacy criterion ≥125%.
Setting [23] is: 40 mg./kg., i.p. days 1, 5 and 9 (positive control).
Where [24] appears, read: 60 mg./kg., i.p. days 1, 5 and 9 (positive control).
Setting [25] is: 20 mg./kg. injection (positive control).

For the compound `COc1ccc(OC)c2c1C(C=NNC1=NCCN1)c1ccccc1C2C=NNC1=NCCN1` (centres unmarked) [1,4-Dimethoxy-bis-(2-imidazolin-2-ylhydrazone)-9,10-dihydro-9,10-anthracenedicarboxaldehyde], the MIC was found to be 128 µg/mL (≈ 278 µM) in experiment [1], 64 µg/mL (≈ 139 µM) in experiment [2], 256 µg/mL (≈ 556 µM) with Enterococcus SM 77-15 and 128 µg/mL (≈ 278 µM) in experiment [3].

On to `Clc1cccc2c1C(C=NNC1=NCCN1)c1ccccc1C2C=NNC1=NCCN1` (centres unmarked) [1-Chloro-bis(2-imidazolin-2-ylhydrazone)-9,10-dihydro-9,10-anthracenedicarboxaldehyde dihydrochloride], for which the “Median Survival” value in experiment [4] (setting [5]) is 15.5 days; in experiment [4] (setting [7]) it was 16.5 days; in experiment [4] (setting [9]) it was 19.5 days; in experiment [4] (setting [11]) it was 21.0 days; in the experiment on melanotic melanoma B16 (setting [13]) it was 22.0 days; in the experiment with melanotic melanoma B16 (setting [15]), 25.5 days. The “Median Survival” value with melanotic melanoma B16 (setting [17]) worked out at 31.0 days. In addition, the “T/C × 100” value was 163% in experiment [4] (setting [6]); 174% in experiment [4] (setting [8]); 205% in experiment [4] (setting [10]); 221% in experiment [4] (setting [12]); 129% with melanotic melanoma B16 (setting [14]); 150% in the experiment on melanotic melanoma B16 (setting [16]). Moreover, the “T/C × 100” value in the experiment with melanotic melanoma B16 (setting [18]) was found to be 182%.

As to `Clc1ccc2c(c1)C(C=NNC1=NCCN1)c1ccccc1C2C=NNC1=NCCN1` (centres unmarked) [2-Chloro-bis(2-imidazolin-2-ylhydrazone)-9,10-dihydro-9,10-anthracenedicarboxaldehyde dihydrochloride], the “Median Survival” value worked out at 17.5 days in experiment [4] (setting [5]); 18.5 days in experiment [4] (setting [7]); 18.0 days in experiment [4] (setting [9]); 18.0 days in experiment [4] (setting [11]); 20.0 days in experiment [4] (setting [19]). The “T/C × 100” value is 175% in experiment [4] (setting [6]); 185% in experiment [4] (setting [8]); 180% in experiment [4] (setting [10]); 180% in experiment [4] (setting [12]); 200% in experiment [4] (setting [20]).

`Cc1ccc2c(c1)C(C=NNC1=NCCN1)c1ccccc1C2C=NNC1=NCCN1` (centres unmarked) [2-Methyl-bis(2-imidazolin-2-ylhydrazone)-9,10-dihydro-9,10-anthracenedicarboxaldehyde dihydrochloride]: the “Median Survival” value is 13.5 days in experiment [4] (setting [5]); 14.5 days in experiment [4] (setting [7]); 16.0 days in experiment [4] (setting [9]); 16.0 days in experiment [4] (setting [11]); 19.0 days in experiment [4] (setting [19]); 24.0 days in the experiment with melanotic melanoma B16 (setting [21]). Also, the “Median Survival” value in the experiment on melanotic melanoma B16 (setting [13]) stood at 25.0 days; with melanotic melanoma B16 (setting [15]), 28.0 days; with melanotic melanoma B16 (setting [17]), 33.5 days. The “T/C × 100” value was 142% in experiment [4] (setting [6]); 153% in experiment [4] (setting [8]); 168% in experiment [4] (setting [10]); 168% in experiment [4] (setting [12]); 200% in experiment [4] (setting [20]); 141% in the experiment on melanotic melanoma B16 (setting [22]). In addition, the “T/C × 100” value in the experiment with melanotic melanoma B16 (setting [14]) worked out at 147%; with melanotic melanoma B16 (setting [16]) it was 165%; in the experiment with melanotic melanoma B16 (setting [18]) it was 197%.

As for `O=c1[nH]cc(F)c(=O)[nH]1` [5-Fluorouracil, reference compound], the “Median Survival” value was 19.0 days and 18 days in experiment [4] (setting [23]); 15.0 days and 18.5 days in experiment [4] (setting [24]); 30 days and 28.5 days in the experiment on melanotic melanoma B16 (setting [25]). The “T/C × 100” value in experiment [4] (setting [23]) is 181% and 164%; in experiment [4] (setting [24]), 158% and 185%; in experiment [4] (mouse, in vivo, ip) it was 158; in the experiment on melanotic melanoma B16 (setting [25]) it was 187% and 168%.

On to `C(=NNC1=NCCN1)C1c2ccccc2C(C=NNC2=NCCN2)c2ccccc21` (centres unmarked) [Bis(2-imidazolin-2-ylhydrazone)-9,10-dihydro-9,10-anthracenedicarboxaldehyde dihydrochloride], for which the “Median Survival” value in experiment [4] (6.25 mg./kg., i.p. days 1, 5 and 9, dihydrochloride) was determined as 13 days; in experiment [4] (12.5 mg./kg., i.p. days 1, 5 and 9, dihydrochloride), 16 days; in the experiment on melanotic melanoma B16 (setting [21]) it was 21.0 days; in the experiment on melanotic melanoma B16 (setting [13]) it was 22.0 days; in the experiment on melanotic melanoma B16 (setting [15]), 25.0 days; in the experiment on melanotic melanoma B16 (setting [17]), 32.0 days. Further, the “T/C × 100” value amounted to 129% in experiment [4] (setting [8]); 152% in experiment [4] (setting [10]); 131% in the experiment with melanotic melanoma B16 (setting [22]); 138% in the experiment with melanotic melanoma B16 (setting [14]); 156% with melanotic melanoma B16 (setting [16]); 200% with melanotic melanoma B16 (setting [18]).

Regarding `C(=NNC1=NCCN1)C1c2ccccc2C(C=NNC2=NCCN2)c2ccccc21` (centres unmarked) [Bis(2-imidazolin-2-ylhydrazone)-9,10-dihydro-9,10-anthracenedicarboxaldehyde], the MIC in experiment [1] was 128 µg/mL (≈ 320 µM); in experiment [2], 32 µg/mL (≈ 79.9 µM); in the experiment with Enterococcus SM 77-15 it was 16 µg/mL (≈ 40 µM); in experiment [3], 64 µg/mL (≈ 160 µM). Besides, the “Median Survival” value is 14 days in experiment [4] (setting [5]); 16.5 days in experiment [4] (setting [7]); 16.5 days in experiment [4] (setting [9]); 17.5 days in experiment [4] (setting [11]); 20 days in experiment [4] (setting [19]); 19.5 days in experiment [4] (100 mg./kg., i.p. days 1, 5 and 9). Besides, the “Median Survival” value in experiment [4] (200 mg./kg., i.p. days 1, 5 and 9) is 23 days; in experiment [4] (400 mg./kg., i.p. days 1, 5 and 9), 25 days. Moreover, the “T/C × 100” value in experiment [4] (setting [6]) is listed as 127%; in experiment [4] (setting [8]) it was 150%; in experiment [4] (setting [10]) it was 150%; in experiment [4] (setting [12]) it was 159%; in experiment [4] (setting [20]), 182%; in experiment [4] (100 mg./kg., i.p. days 1, 5 and 9, efficacy criterion ≥125%) it was 177%. Besides, the “T/C × 100” value in experiment [4] (400 mg./kg., i.p. days 1, 5 and 9, efficacy criterion ≥125%) is 227%; in experiment [4] (mouse, in vivo, ip), 209.

With `COc1ccc(OC)c2c1C(C=NNC1=NCCN1)c1ccccc1C2C=NNC1=NCCN1` (centres unmarked) [Bis-(2-imidazolin-2-ylhydrazone)-1,4-dimethoxy-9,10-dihydro-9,10-anthracenedicarboxaldehyde dihydrochloride], the “Minimal Inhibitory Concentration” value in experiment [2] (18 hours, dihydrochloride) is 128 µg/mL.
